From patent US10351546B2, “Pyridin-3-yl acetic acid derivatives as inhibitors of human immunodeficiency virus replication” (priority 2015, dated 2019) come the findings set out here.

The structures appear in SMILES notation. Where two headings read alike, the source gives them in different places.

This experiment concerns NL-RLuc virus. Kind of experiment: Inhibition of HIV replication (NL-RLuc luciferase reporter virus in MT-2 cells). The experiment is classed as cell-based. The note with it: Human immunodeficiency virus 1, MT2, 120 h. A digest of the protocol: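 MT-2 cells were infected with NL4-3-derived virus carrying Renilla luciferase in place of part of nef, in RPMI/10% FBS, with serial compound dilutions. Luciferase read after 5 days of multicycle replication. EC50 from the median effect equation, at least 2 experiments.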
A general note: In a reporter assay the amount or activity of a reporter protein is the signal.

For `Cc1nc(CN(C)CC2CCOCC2)c(-c2ccc(OCCc3ccc(F)cc3)cc2)c(N2CCC(C)(C)CC2)c1[C@H](OC(C)(C)C)C(=O)O` [Example 84, (S)-2-(tert-Butoxy)-2-(4-(4,4-dimethylpiperidin-1-yl)-5-(4-(4-fluorophenethoxy)phenyl)-2-methyl-6-((methyl((tetrahydro-2H-pyran-4-yl)methyl)amino)methyl)pyridin-3-yl)acetic acid], for the setting “read-out: Activity”, the EC50 is less than 0.1 µM.

For the compound `COC1CCN(Cc2nc(C)c([C@H](OC(C)(C)C)C(=O)O)c(N3CCC(C)(C)CC3)c2-c2ccc(OCCc3ccc(F)cc3)cc2)CC1` [Example 85, (S)-2-(tert-Butoxy)-2-(4-(4,4-dimethylpiperidin-1-yl)-5-(4-(4-fluorophenethoxy)phenyl)-6-((4-methoxypiperidin-1-yl)methyl)-2-methylpyridin-3-yl)acetic acid], the EC50 was less than 0.1 µM (read-out: Activity) and 0.001 µM (read-out: EC50 μM).

Regarding `Cc1nc(CN2CCC(F)(F)CC2)c(-c2ccc(OCCc3ccc(F)cc3)cc2)c(N2CCC(C)(C)CC2)c1[C@H](OC(C)(C)C)C(=O)O` [Example 86, (S)-2-(tert-Butoxy)-2-(6-((4,4-difluoropiperidin-1-yl)methyl)-4-(4,4-dimethylpiperidin-1-yl)-5-(4-(4-fluorophenethoxy)phenyl)-2-methylpyridin-3-yl)acetic acid], the EC50 (read-out: Activity) was less than 0.1 µM.

Regarding `Cc1nc(CN2CCC(O)CC2)c(-c2ccc(OCCc3ccc(F)cc3)cc2)c(N2CCC(C)(C)CC2)c1[C@H](OC(C)(C)C)C(=O)O` [Example 87, (S)-2-(tert-Butoxy)-2-(4-(4,4-dimethylpiperidin-1-yl)-5-(4-(4-fluorophenethoxy)phenyl)-6-((4-hydroxypiperidin-1-yl)methyl)-2-methylpyridin-3-yl)acetic acid], where the note is “read-out: Activity”, the EC50 was less than 0.1 µM.

In the case of `Cc1nc(CN2CCC(C)(C)CC2)c(-c2ccc(OCCc3ccc(F)cc3)cc2)c(N2CCC(C)(C)CC2)c1[C@H](OC(C)(C)C)C(=O)O` [Example 88, (S)-2-(tert-Butoxy)-2-(4-(4,4-dimethylpiperidin-1-yl)-6-((4,4-dimethylpiperidin-1-yl)methyl)-5-(4-(4-fluorophenethoxy)phenyl)-2-methylpyridin-3-yl)acetic acid], the EC50 (read-out: Activity) is less than 0.1 µM.

Turning to `Cc1nc(CN2CCCc3ccccc32)c(-c2ccc(OCCc3ccc(F)cc3)cc2)c(N2CCC(C)(C)CC2)c1[C@H](OC(C)(C)C)C(=O)O` [Example 89, (S)-2-(tert-Butoxy)-2-(6-((3,4-dihydroquinolin-1(2H)-yl)methyl)-4-(4,4-dimethylpiperidin-1-yl)-5-(4-(4-fluorophenethoxy)phenyl)-2-methylpyridin-3-yl)acetic acid], the EC50 (read-out: Activity) is less than 0.1 µM.

As for `Cc1nc(CN2CCC(F)CC2)c(-c2ccc(OCCc3ccc(F)cc3)cc2)c(N2CCC(C)(C)CC2)c1[C@H](OC(C)(C)C)C(=O)O` [Example 90, (S)-2-(tert-Butoxy)-2-(4-(4,4-dimethylpiperidin-1-yl)-5-(4-(4-fluorophenethoxy)phenyl)-6-((4-fluoropiperidin-1-yl)methyl)-2-methylpyridin-3-yl)acetic acid], the EC50 (read-out: Activity) is less than 0.1 µM.

Turning to `COc1ccccc1NCc1nc(C)c([C@H](OC(C)(C)C)C(=O)O)c(N2CCC(C)(C)CC2)c1-c1ccc(OCCc2ccc(F)cc2)cc1` [Example 91, (S)-2-(tert-Butoxy)-2-(4-(4,4-dimethylpiperidin-1-yl)-5-(4-(4-fluorophenethoxy)phenyl)-6-(((2-methoxyphenyl)amino)methyl)-2-methylpyridin-3-yl)acetic acid], the EC50 reads like this: (read-out: Activity) less than 0.1 µM; (read-out: EC50 μM) 0.018 µM.

Turning to `Cc1nc(CN2CC(C)OC(C)C2)c(-c2ccc(OCCc3ccc(F)cc3)cc2)c(N2CCC(C)(C)CC2)c1[C@H](OC(C)(C)C)C(=O)O` (stereo partly drawn) [Example 92, (2S)-2-(tert-Butoxy)-2-(6-((2,6-dimethylmorpholino)methyl)-4-(4,4-dimethylpiperidin-1-yl)-5-(4-(4-fluorophenethoxy)phenyl)-2-methylpyridin-3-yl)acetic acid], the EC50 (read-out: Activity) was less than 0.1 µM.

`COCCN(CCOC)Cc1nc(C)c([C@H](OC(C)(C)C)C(=O)O)c(N2CCC(C)(C)CC2)c1-c1ccc(OCCc2ccc(F)cc2)cc1` [Example 93, (S)-2-(6-((Bis(2-methoxyethyl)amino)methyl)-4-(4,4-dimethylpiperidin-1-yl)-5-(4-(4-fluorophenethoxy)phenyl)-2-methylpyridin-3-yl)-2-(tert-butoxy)acetic acid]: the EC50 (read-out: Activity) is less than 0.1 µM.

Take `Cc1nc(CN2CCN(C)CC2)c(-c2ccc(OCCc3ccc(F)cc3)cc2)c(N2CCC(C)(C)CC2)c1[C@H](OC(C)(C)C)C(=O)O` [Example 94, (S)-2-(tert-Butoxy)-2-(4-(4,4-dimethylpiperidin-1-yl)-5-(4-(4-fluorophenethoxy)phenyl)-2-methyl-6-((4-methylpiperazin-1-yl)methyl)pyridin-3-yl)acetic acid]: the EC50 (read-out: Activity) is less than 0.1 µM.

On to `Cc1nc(CNCc2ccccn2)c(-c2ccc(OCCc3ccc(F)cc3)cc2)c(N2CCC(C)(C)CC2)c1[C@H](OC(C)(C)C)C(=O)O` [Example 95, (S)-2-(tert-Butoxy)-2-(4-(4,4-dimethylpiperidin-1-yl)-5-(4-(4-fluorophenethoxy)phenyl)-2-methyl-6-(((pyridin-2-ylmethyl)amino)methyl)pyridin-3-yl)acetic acid], for which the EC50 (read-out: Activity) is less than 0.1 µM.

For `Cc1nc(CN2[C@@H]3CC[C@H]2CN(C)C3)c(-c2ccc(OCCc3ccc(F)cc3)cc2)c(N2CCC(C)(C)CC2)c1[C@H](OC(C)(C)C)C(=O)O` [Example 96, (S)-2-(tert-butoxy)-2-(4-(4,4-dimethylpiperidin-1-yl)-5-(4-(4-fluorophenethoxy)phenyl)-2-methyl-6-(((1R,5S)-3-methyl-3,8-diazabicyclo[3.2.1]octan-8-yl)methyl)pyridin-3-yl)acetic acid], the EC50 (read-out: Activity) was less than 0.1 µM.

In the case of `Cc1nc(CN(C)Cc2ccccc2)c(-c2ccc(OCCc3ccc(F)cc3)cc2)c(N2CCC(C)(C)CC2)c1[C@H](OC(C)(C)C)C(=O)O` [Example 97, (S)-2-(6-((Benzyl(methyl)amino)methyl)-4-(4,4-dimethylpiperidin-1-yl)-5-(4-(4-fluorophenethoxy)phenyl)-2-methylpyridin-3-yl)-2-(tert-butoxy)acetic acid], under “read-out: Activity”, the EC50 was less than 0.1 µM.

On to `Cc1nc(CN2C3CC2CN(Cc2ccccc2)C3)c(-c2ccc(OCCc3ccc(F)cc3)cc2)c(N2CCC(C)(C)CC2)c1[C@H](OC(C)(C)C)C(=O)O` [Example 98, (2S)-2-(6-((3-Benzyl-3,6-diazabicyclo[3.1.1]heptan-6-yl)methyl)-4-(4,4-dimethylpiperidin-1-yl)-5-(4-(4-fluorophenethoxy)phenyl)-2-methylpyridin-3-yl)-2-(tert-butoxy)acetic acid], for which the EC50 (read-out: Activity) was less than 0.1 µM.

As for `Cc1nc(CNCC2CCCCC2)c(-c2ccc(OCCc3ccc(F)cc3)cc2)c(N2CCC(C)(C)CC2)c1[C@H](OC(C)(C)C)C(=O)O` [Example 99, (S)-2-(tert-Butoxy)-2-(6-(((cyclohexylmethyl)amino)methyl)-4-(4,4-dimethylpiperidin-1-yl)-5-(4-(4-fluorophenethoxy)phenyl)-2-methylpyridin-3-yl)acetic acid], the EC50 (read-out: Activity) was less than 0.1 µM.

For the compound `Cc1nc(CN(C)CC2CCCCC2)c(-c2ccc(OCCc3ccc(F)cc3)cc2)c(N2CCC(C)(C)CC2)c1[C@H](OC(C)(C)C)C(=O)O` [Example 100, (S)-2-(tert-Butoxy)-2-(6-(((cyclohexylmethyl)(methyl)amino)methyl)-4-(4,4-dimethylpiperidin-1-yl)-5-(4-(4-fluorophenethoxy)phenyl)-2-methylpyridin-3-yl)acetic acid], the EC50 is, setting by setting: (read-out: Activity) less than 0.1 µM; (read-out: EC50 μM) 0.003 µM.

On to `CC(=O)N(C)Cc1nc(C)c([C@H](OC(C)(C)C)C(=O)O)c(N2CCC(C)(C)CC2)c1-c1ccc(OCCc2ccc(F)cc2)cc1` [Example 101, (S)-2-(tert-Butoxy)-2-(4-(4,4-dimethylpiperidin-1-yl)-5-(4-(4-fluorophenethoxy)phenyl)-2-methyl-6-((N-methylacetamido)methyl)pyridin-3-yl)acetic acid], for which the EC50 (read-out: Activity) is less than 0.1 µM.

For the compound `Cc1nc(CN(C)C(=O)C(=O)N(C)C)c(-c2ccc(OCCc3ccc(F)cc3)cc2)c(N2CCC(C)(C)CC2)c1[C@H](OC(C)(C)C)C(=O)O` [Example 102, (S)-2-(tert-Butoxy)-2-(6-((2-(dimethylamino)-N-methyl-2-oxoacetamido)methyl)-4-(4,4-dimethylpiperidin-1-yl)-5-(4-(4-fluorophenethoxy)phenyl)-2-methylpyridin-3-yl)acetic acid], where the note is “read-out: Activity”, the EC50 was less than 0.1 µM.

For `Cc1nnc(C(=O)N(C)Cc2nc(C)c([C@H](OC(C)(C)C)C(=O)O)c(N3CCC(C)(C)CC3)c2-c2ccc(OCCc3ccc(F)cc3)cc2)o1` [Example 103, (S)-2-(tert-butoxy)-2-(6-((N,5-dimethyl-1,3,4-oxadiazole-2-carboxamido)methyl)-4-(4,4-dimethylpiperidin-1-yl)-5-(4-(4-fluorophenethoxy)phenyl)-2-methylpyridin-3-yl)acetic acid], the EC50 (read-out: Activity) is less than 0.1 µM.

Regarding `Cc1nnc(C(=O)NCc2nc(C)c([C@H](OC(C)(C)C)C(=O)O)c(N3CCC(C)(C)CC3)c2-c2ccc(OCCc3ccc(F)cc3)cc2)o1` [Example 104, (S)-2-(tert-Butoxy)-2-(4-(4,4-dimethylpiperidin-1-yl)-5-(4-(4-fluorophenethoxy)phenyl)-2-methyl-6-((5-methyl-1,3,4-oxadiazole-2-carboxamido)methyl)pyridin-3-yl)acetic acid], the EC50 (read-out: Activity) is less than 0.1 µM.

For `Cc1nc(CNC(=O)C(=O)N(C)C)c(-c2ccc(OCCc3ccc(F)cc3)cc2)c(N2CCC(C)(C)CC2)c1[C@H](OC(C)(C)C)C(=O)O` [Example 105, (S)-2-(tert-Butoxy)-2-(6-((2-(dimethylamino)-2-oxoacetamido)methyl)-4-(4,4-dimethylpiperidin-1-yl)-5-(4-(4-fluorophenethoxy)phenyl)-2-methylpyridin-3-yl)acetic acid], where the note is “read-out: Activity”, the EC50 was less than 0.1 µM.
